Laboratory results: US10703756B2, “Pyrrolo[2,3-D]pyrimidinyl, pyrrolo[2,3-B]pyrazinyl, pyrrolo[2,3-B]pyridinyl acrylamides and epoxides thereof” (Pfizer Inc., priority 2015, dated 2020)

Tests used:
JAK3 enzyme [1] = biological target: T1, JAK3 enzyme (Homo sapiens, UniProt P52333); assay: JAK Caliper Enzyme Assay at 4 μM ATP; type: biochemical
T1 sequence (P52333 1-1124): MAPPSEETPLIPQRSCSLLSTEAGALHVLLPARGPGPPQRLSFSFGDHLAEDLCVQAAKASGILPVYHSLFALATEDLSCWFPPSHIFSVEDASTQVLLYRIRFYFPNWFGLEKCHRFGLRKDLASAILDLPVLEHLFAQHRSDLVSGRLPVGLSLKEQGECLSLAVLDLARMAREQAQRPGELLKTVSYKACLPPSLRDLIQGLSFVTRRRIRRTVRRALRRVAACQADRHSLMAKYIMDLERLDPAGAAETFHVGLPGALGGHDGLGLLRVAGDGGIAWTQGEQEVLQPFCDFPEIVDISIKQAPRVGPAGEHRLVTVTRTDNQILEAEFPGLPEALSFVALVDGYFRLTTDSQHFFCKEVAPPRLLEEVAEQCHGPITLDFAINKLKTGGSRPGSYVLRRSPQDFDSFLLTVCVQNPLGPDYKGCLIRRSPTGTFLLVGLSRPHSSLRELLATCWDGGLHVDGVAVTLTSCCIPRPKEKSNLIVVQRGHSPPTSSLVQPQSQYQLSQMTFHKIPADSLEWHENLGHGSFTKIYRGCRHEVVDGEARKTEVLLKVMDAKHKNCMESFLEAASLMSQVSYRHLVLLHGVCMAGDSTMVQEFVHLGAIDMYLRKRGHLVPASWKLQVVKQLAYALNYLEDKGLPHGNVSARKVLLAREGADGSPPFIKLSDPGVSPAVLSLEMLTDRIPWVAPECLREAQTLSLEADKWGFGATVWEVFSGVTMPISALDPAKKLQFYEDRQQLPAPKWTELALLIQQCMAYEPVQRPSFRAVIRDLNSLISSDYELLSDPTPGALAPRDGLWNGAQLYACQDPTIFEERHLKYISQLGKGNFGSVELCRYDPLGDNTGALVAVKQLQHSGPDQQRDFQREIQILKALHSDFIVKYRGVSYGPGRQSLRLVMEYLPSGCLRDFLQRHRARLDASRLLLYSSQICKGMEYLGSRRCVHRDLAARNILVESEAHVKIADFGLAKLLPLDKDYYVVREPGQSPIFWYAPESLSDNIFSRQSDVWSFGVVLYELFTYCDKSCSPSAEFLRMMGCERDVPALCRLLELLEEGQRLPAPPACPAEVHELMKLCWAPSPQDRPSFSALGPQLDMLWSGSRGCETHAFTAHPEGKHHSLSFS
Outline: (§1)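 Substrate conversion was kept within 20%-30% by adjusting enzyme and incubation for every preparation; peptide phosphorylation was quantified via on-chip mobility shift.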

[2] = Stability of JAK3 Covalent Inhibitors in Human Whole Blood; type: in vitro ADME; details: both sexes, 1 μM test compound, 37° C., 180 min incubation, read-out: Human blood stability t1/2
Method: Stability of JAK3 Covalent Inhibitors in Rat and Human Whole Blood
Rat blood was collected from 3 male Sprague-Dawley rats (200-250 g, Charles River Laboratories) and pooled for each study. Human blood was collected from healthy subjects at the Occupational Health & Wellness Center at Pfizer, Groton, Conn. and pooled for each study. Both rat and human blood was collected freshly into K2-EDTA tubes and kept on ice. An aliquot of the blood was transferred to microtubes and pre-warmed for 10 min at 37° C. using a heat block. The test compound was then added (1 μM final concentration) and the incubation was continued for 180 min at 37° C. in duplicates. An aliquot of the incubation mixture was removed at designated time points during the course of the incubation, mixed with an aliquot of acetonitrile containing an internal standard, vortexed and centrifuged. The resulting supernatants were removed and subjected to LC-MS/MS analyses to determine parent compound concentrations. Peak area ratios of the parent compound vs the internal standard were used to determine the % of parent compound remaining vs incubation time.

JAK3 enzyme [3] = biological target: T1, JAK3 enzyme; assay: JAK Caliper Enzyme Assay at 1 mM ATP; type: biochemical
Outline: as §1

[4] = tested on: IL-15 induced P-STAT5 in human PBMC; assay: PBMC IL-15 Induced P-STAT5; type: cell-based; details: human PBMC, IL-15 final 41 ng/mL; read-out: PBMC IL15_pSTAT5_IC50
Outline: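 Flow cytometry gated on total lymphocytes measured STAT5 staining (Alexa Fluor 647 antibody, overnight, 4 °C) in fixed, methanol-permeabilised human PBMC. Cells had received compound for 15 min at 37 °C (0.2% DMSO final), followed by 41 ng/mL final human IL-15 for 15 min.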

Work on `C=CC(=O)N1C[C@@H](Nc2cnc3[nH]cc(C(=O)N[C@H](C)COC)c3n2)CC[C@H]1C` (single isomer, unassigned) [Example 70] yielded an IC50 (JAK3 enzyme [1]) of 9.1 nM, a half-life at 1 μM [2] greater than 6 h and an IC50 (JAK3 enzyme [3]) of 1390 nM.

In the case of `C=CC(=O)N1C[C@H](Nc2cnc3[nH]cc(C(=O)N[C@@H](C)COC)c3n2)CC[C@@H]1C` (single isomer, unassigned) [Example 66], the IC50 (JAK3 enzyme [1]) is reported as 6.21 nM, the half-life at 1 μM [2] is reported as greater than 6 h and the IC50 (JAK3 enzyme [3]) is reported as 412 nM.

Work on `C=CC(=O)N1CCC(Nc2cnc3[nH]cc(C(=O)NCCC)c3n2)CC1` [Example 170, 2-[(1-acryloylpiperidin-4-yl)amino]-N-propyl-5H-pyrrolo[2,3-b]pyrazine-7-carboxamide] yielded an IC50 (JAK3 enzyme [1]) of 0.508 nM, a half-life at 1 μM [2] of 5.13 h and an IC50 (JAK3 enzyme [3]) of 4 nM.

Compound `C=CC(=O)N1C[C@H](Oc2cnc3[nH]cc(C(=O)N[C@@H](C)COC)c3n2)CC[C@@H]1C` (single isomer, unassigned) [Example 81] has a half-life at 1 μM [2] greater than 6 h and an IC50 (JAK3 enzyme [3]) of 76.9 nM.

For `C=CC(=O)N1CCC(Oc2cnc3[nH]cc(C(=O)NCC4(O)CCCC4)c3n2)CC1` (racemic) [Example 206, Racemic-2-[(1-acryloylpiperidin-4-yl)oxy]-N-[(1-hydroxycyclopentyl)methyl]-5H-pyrrolo[2,3-b]pyrazine-7-carboxamide], the IC50 (JAK3 enzyme [1]) was 2.79 nM, the IC50 (JAK3 enzyme [3]) was 325 nM and the IC50 [4] was 3100 nM.

`C[C@H]1CC[C@@H](Nc2ncnc3[nH]ccc23)CN1C(=O)C1CO1` (mixture of isomers) [Example 132, Racemic-[(2S,5R)-2-methyl-5-(7H-pyrrolo[2,3-d]pyrimidin-4-ylamino)piperidin-1-yl](oxiran-2-yl)methanone] showed an IC50 (JAK3 enzyme [1]) of 1.67 nM, an IC50 (JAK3 enzyme [3]) of 255 nM and an IC50 [4] of 524 nM.

In the case of `C=CC(=O)N1CCC(Nc2cnc3[nH]cc(C(=O)NCCc4nc5ccc(F)c(F)c5o4)c3n2)CC1` [Example 182, 2-[(1-acryloylpiperidin-4-yl)amino]-N-[2-(6,7-difluoro-1,3-benzoxazol-2-yl)ethyl]-5H-pyrrolo[2,3-b]pyrazine-7-carboxamide], the IC50 (JAK3 enzyme [1]) is reported as 2.44 nM, the IC50 (JAK3 enzyme [3]) is reported as 165 nM and the IC50 [4] is reported as greater than 10000 nM.

Compound `C=CC(=O)N(C)C1CN(c2cnc3[nH]cc(C(=O)NCCOC)c3n2)C1` [Example 84, 2-{3-[acryloyl(methyl)amino]azetidin-1-yl}-N-(2-methoxyethyl)-5H-pyrrolo[2,3-b]pyrazine-7-carboxamide] has an IC50 (JAK3 enzyme [1]) of 1.67 nM, an IC50 (JAK3 enzyme [3]) of 329 nM and an IC50 [4] of 1220 nM.

Compound `C=CC(=O)N1CCC(C)(Nc2cnc3[nH]cc(C(=O)NCC4CC(F)(F)C4)c3n2)CC1` [Example 306, 2-[(1-acryloyl-4-methylpiperidin-4-yl)amino]-N-[(3,3-difluorocyclobutyl)methyl]-5H-pyrrolo[2,3-b]pyrazine-7-carboxamide] has an IC50 (JAK3 enzyme [1]) of 0.705 nM, an IC50 (JAK3 enzyme [3]) of 107 nM and an IC50 [4] of 1570 nM.

Work on `C=CC(=O)N1CCC(Nc2cnc3[nH]cc(C(=O)NCc4cc(C5CCC5)nn4C)c3n2)CC1` [Example 173, 2-[(1-acryloylpiperidin-4-yl)amino]-N-[(3-cyclobutyl-1-methyl-1H-pyrazol-5-yl)methyl]-5H-pyrrolo[2,3-b]pyrazine-7-carboxamide] yielded an IC50 (JAK3 enzyme [1]) of 0.681 nM, an IC50 (JAK3 enzyme [3]) of 43 nM and an IC50 [4] of 1420 nM.

With `C=CC(=O)N1CCN(c2cnc3[nH]cc(C(=O)NC(CC)COC)c3n2)CC1(C)C` (racemic) [Example 141, Racemic-2-(4-acryloyl-3,3-dimethylpiperazin-1-yl)-N-(1-methoxybutan-2-yl)-5H-pyrrolo[2,3-b]pyrazine-7-carboxamide] the IC50 (JAK3 enzyme [1]) was 0.794 nM, the IC50 (JAK3 enzyme [3]) was 103 nM and the IC50 [4] was 347 nM.

For `C=CC(=O)N1CC[C@@H](Nc2cnc3[nH]cc(C(=O)NCC(C)(C)C)c3n2)[C@@H](OC)C1` [Example 300, 2-{[(3S,4R)-1-acryloyl-3-methoxypiperidin-4-yl]amino}-N-(2,2-dimethylpropyl)-5H-pyrrolo[2,3-b]pyrazine-7-carboxamide], the IC50 (JAK3 enzyme [1]) was 0.69 nM, the IC50 (JAK3 enzyme [3]) was 92 nM and the IC50 [4] was 700 nM.

`C=CC(=O)N1C[C@@H](Nc2ncnc3[nH]ccc23)CC[C@H]1CNC(C)=O` (single isomer, unassigned) [Example 90] gave an IC50 (JAK3 enzyme [1]) of 1.04 nM, an IC50 (JAK3 enzyme [3]) of 152 nM and an IC50 [4] of 3220 nM.

`C=CC(=O)N1CCC(Nc2cnc3[nH]cc(C(=O)NCCCC(F)(F)F)c3n2)CC1C` (racemic) [Example 282, Racemic-2-[(1-acryloyl-2-methylpiperidin-4-yl)amino]-N-(4,4,4-trifluorobulyl)-5H-pyrrolo[2,3-b]pyrazine-7-carboxamide] gave an IC50 (JAK3 enzyme [1]) of 2.45 nM, an IC50 (JAK3 enzyme [3]) of 359 nM and an IC50 [4] of 3090 nM.

Work on `C=CC(=O)N1C[C@@H](Nc2ncnc3[nH]ccc23)C[C@@H](C(=O)N(C)C)C1` (racemic) [Example 94] yielded an IC50 (JAK3 enzyme [1]) of 0.8 nM, an IC50 (JAK3 enzyme [3]) of 148 nM and an IC50 [4] of 1080 nM.

In the case of `C=CC(=O)N1C[C@H](CC#N)C[C@H](Nc2ncnc3[nH]ccc23)C1` (single isomer, unassigned) [Example 107], the IC50 (JAK3 enzyme [1]) is reported as 11.8 nM, the IC50 (JAK3 enzyme [3]) is reported as 1240 nM and the IC50 [4] is reported as 8260 nM.

`C=CC(=O)N1CC[C@H](Nc2cnc3[nH]cc(C(=O)N[C@H](C)COC)c3n2)C[C@@H]1C` (stereo in doubt) [Example 354, 2-(((2S,4S)-1-Acryloyl-2-methylpiperidin-4-yl)amino)-N—((R)-1-methoxypropan-2-yl)-5H-pyrrolo[2,3-b]pyrazine-7-carboxamide] gave an IC50 (JAK3 enzyme [1]) of 3.41 nM, an IC50 (JAK3 enzyme [3]) of 261 nM and an IC50 [4] of 4520 nM.

For `C=CC(=O)N1CCN(c2cnc3[nH]cc(C(=O)NC(CC)(CC)CO)c3n2)CC1(C)C` [Example 163, 2-(4-acryloyl-3,3-dimethylpiperazin-1-yl)-N-[3-(hydroxymethyl)pentan-3-yl] 5H-pyrrolo[2,3-b]pyrazine-7-carboxamide], the IC50 (JAK3 enzyme [1]) was 1.24 nM, the IC50 (JAK3 enzyme [3]) was 160 nM and the IC50 [4] was 409 nM.

Work on `C=CC(=O)N1CCC(C)(Nc2cnc3[nH]cc(C(=O)NCC)c3n2)CC1` [Example 281, 2-[(1-acryloyl-4-methylpiperidin-4-yl)amino]-N-ethyl-5H-pyrrolo[2,3-b]pyrazine-7-carboxamide] yielded an IC50 (JAK3 enzyme [1]) of 1.02 nM, an IC50 (JAK3 enzyme [3]) of 73 nM and an IC50 [4] of 1220 nM.

`C=CC(=O)N1CCC(Oc2cnc3[nH]cc(C(=O)NC4CC(F)(F)C4)c3n2)CC1` [Example 212, 2-[(1-acryloylpiperidin-4-yl)oxy]-N-(3,3-difluorocyclobutyl)-5H-pyrrolo[2,3-b]pyrazine-7-carboxamide] showed an IC50 (JAK3 enzyme [1]) of 0.922 nM, an IC50 (JAK3 enzyme [3]) of 328 nM and an IC50 [4] of 1340 nM.

Compound `C=CC(=O)N1CCN(c2cnc3[nH]cc(C(=O)N[C@@H](CC)COC)c3n2)CC1(C)C` [Example 135, 2-(4-acryloyl-3,3-dimethylpiperazin-1-yl)-N-[(2S)-1-methoxybutan-2-yl]-5H-pyrrolo[2,3-b]pyrazine-7-carboxamide] has an IC50 (JAK3 enzyme [1]) of 1.49 nM, an IC50 (JAK3 enzyme [3]) of 168 nM and an IC50 [4] of 759 nM.

`C=CC(=O)N1CCN(c2cnc3[nH]cc(C(=O)NCC4CC(F)(F)C4)c3n2)C[C@@H]1CC(C)C` [Example 274, 2-[(3S)-4-acryloyl-3-(2-methylpropyl)piperazin-1-yl]-N-[(3,3-difluorocyclobutyl)methyl]-5H-pyrrolo[2,3-b]pyrazine-7-carboxamide] showed an IC50 (JAK3 enzyme [1]) of 0.984 nM, an IC50 (JAK3 enzyme [3]) of 157 nM and an IC50 [4] of 507 nM.
